{
  "source": "patent US20250339386A1",
  "about": "“VITAMIN K2 FOR USE IN TREATMENT OF CORONARY ARTERY CALCIFICATION” (Region Syddanmark, priority 2022, published 2025)",
  "origin": "cited, not measured here",
  "key": {"[1]": {"system": "human monocyte-derived macrophages", "details": "cells pretreated; dose response relationship"}, "CAC progression": {"system": "CAC progression", "details": "asymptomatic older men and women 60-80 years, with recommended calcium and vitamin D"}, "[2]": {"system": "aortic valve calcification", "details": "high-dose supplementation; male subjects with aortic valve calcification score above 300 arbitrary units"}},
  "data": [
    {"molecule": "CC(C)=CCC/C(C)=C/CC/C(C)=C/CC/C(C)=C/CC/C(C)=C/CC/C(C)=C/CC/C(C)=C/CC1=C(C)C(=O)c2ccccc2C1=O", "note": "[menaquinone-7]", "values": [
      {"measurement": "Cytokine release (TNF-α, IL-1α, IL-1β)", "setting": "[1]", "value": "inhibition of cytokine release"}
    ]},
    {"molecule": "CC1=C(C/C=C(\\C)CCC[C@H](C)CCC[C@H](C)CCCC(C)C)C(=O)c2ccccc2C1=O", "note": "[vitamin K1, phylloquinone]", "values": [
      {"measurement": "Progression of existing CAC", "setting": "CAC progression", "value": "reduced the progression of existing CAC"}
    ]},
    {"molecule": "Menaquinone [vitamin K2]", "values": [
      {"measurement": "Aortic valve calcification progression", "setting": "[2]", "value": "non-significantly decreased"}
    ]}
  ]
}
